Data on 25 molecules can be found in patent publication US11365199B2, “Pyrazole compounds as modulators of FSHR and uses thereof” (Merck Patent GmbH, priority 2013, dated 2022).

What is called EC50 is the concentration at which the effect is half-maximal.

Like-named read-outs stand apart in the source and are kept apart here. Some results are limits rather than exact numbers.

This experiment addresses T1, FSHR (Homo sapiens, UniProt P23945).
T1 construct: expressed in transfected cells; host or cells: CHO (Cho-FSHR-LUC-1-1-43)
T1 sequence (P23945 18-695): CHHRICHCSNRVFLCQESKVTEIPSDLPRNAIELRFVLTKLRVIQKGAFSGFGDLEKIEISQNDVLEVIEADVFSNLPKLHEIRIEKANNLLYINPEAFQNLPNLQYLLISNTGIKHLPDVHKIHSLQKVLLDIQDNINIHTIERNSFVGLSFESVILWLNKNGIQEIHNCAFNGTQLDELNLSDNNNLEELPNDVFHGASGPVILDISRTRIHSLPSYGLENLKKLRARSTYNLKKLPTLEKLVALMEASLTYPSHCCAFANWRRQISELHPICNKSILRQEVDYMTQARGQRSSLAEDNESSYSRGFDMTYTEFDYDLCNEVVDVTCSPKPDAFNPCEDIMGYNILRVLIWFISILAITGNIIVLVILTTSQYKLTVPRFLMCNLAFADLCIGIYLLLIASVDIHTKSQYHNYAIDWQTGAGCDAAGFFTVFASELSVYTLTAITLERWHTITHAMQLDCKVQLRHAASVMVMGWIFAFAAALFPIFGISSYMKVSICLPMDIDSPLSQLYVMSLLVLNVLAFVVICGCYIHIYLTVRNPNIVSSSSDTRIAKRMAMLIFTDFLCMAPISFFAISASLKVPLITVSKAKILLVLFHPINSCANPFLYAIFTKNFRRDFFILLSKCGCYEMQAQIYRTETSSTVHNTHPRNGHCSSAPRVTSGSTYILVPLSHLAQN
Briefly: EC50 of cyclic AMP production in CHO FSHR cells + EC20 FSH (Assay A). Type of experiment: cell-based. As to the method:
EC50 of Cyclic AMP Production in CHO FSHR Cells+EC20 FSH (Assay A)
2500 Cho-FSHR-LUC-1-1-43 cells were plated per well in 5 μl of phenol red free DMEM/F12+1% FBS. Cells were plated in 384 well, solid white low volume plates (Greiner 784075) by Multidrop. Cells were assayed by adding 100 μl of 2×EC20 FSH/IBMX in DMEM/F12+0.1% BSA) by Multidrop to 2 μl of test compound stamped in 384 well plates (compounds are diluted 1:50). The final FSH concentration was […], and the final IBMX concentration was 200 μM. The compound plate map was as follows: Column 1: 2 μl of DMSO; Column 2: 2 μl of DMSO; Columns 3-12 and 13-24: 2 μl of test compound, diluted 1:4 in 100% DMSO, or 2 μl of FSH, diluted 1:4 in DMEM/F12+0.1% BSA. The starting concentration for FSH was 50 nM (final concentration was 0.5 nM). Furthermore, Column 23 contained 2 μl of EC100 FSH reference (100×) (diluted in DMEM/F12+0.1% BSA) at a final concentration of 0.5 nM, and Column 24 contained 2 μl of 1 mM AS707664/2 reference compound 2. 5 μl of compound+EC20 FSH mixture were transferred to cell plates (1:2 dilution into 5 μl of cell media) The plates were incubated at 37° C. for 1 h. 10 μl of mixed HTRF (CisBio #62AM4PEC) reagents were added per well and incubated at room temperature for 1 h. The plates were read on Envision using the cAMP HTRF—low volume 384 well protocol. The readout was the calculated fluorescence ratio (665 nm/620 nm). Values given in percent (%) indicate the percental effect (response) at a certain concentration of agonist relative to the maximum response of the FSH standard.

The mark [1] stands for this setting: CHO FSHR cells + EC20 FSH, cAMP HTRF, read-out: Assay A: EC50 of cyclic AMP production.

Turning to `COc1cc2c(cc1-c1ccn(C)c1)-c1c(c(C(=O)N(C)C(C)(C)C)nn1-c1ccsc1)CO2` [Compound 55, 7-Methoxy-8-(1-methyl-1H-pyrrol-3-yl)-1-thiophen-3-yl-1,4-dihydro-chromeno[4,3-c]pyrazole-3-carboxylic acid tert-butyl-methyl-amide], under setting [1], the EC50 is less than 100 nM.

Turning to `COc1cc2c(cc1-c1ccn(C)n1)-c1c(c(C(=O)O[C@H]3CC[C@H](N)C3)nn1-c1ccsc1)CO2` [Compound 180, 7-Methoxy-8-(1-methyl-1H-pyrazol-3-yl)-1-thiophen-3-yl-1,4-dihydro-chromeno[4,3-c]pyrazole-3-carboxylic Acid (1S,3S)-3-amino-cyclopentyl Ester], under setting [1], the EC50 was less than 100 nM.

Take `COc1cc2c(cc1-c1ccsc1C)-c1c(c(C(=O)N(C)C(C)(C)C)nn1-c1ccsc1)CO2` [Compound 75]: the concentration for a half-maximal effect (EC50) under setting [1] is less than 100 nM.

Take `CCn1nccc1-c1cc2c(cc1OC)OCc1c(C(=O)N3CCOCC3(C)C)nn(-c3ccsc3)c1-2` [Compound 213, (3,3-Dimethyl-morpholin-4-yl)-[8-(2-ethyl-2H-pyrazol-3-yl)-7-methoxy-1-thiophen-3-yl-1,4-dihydro-chromeno[4,3-c]pyrazol-3-yl]-methanone]: the 50% effective concentration (EC50) under setting [1] is less than 100 nM.

On to `COc1cc2c(cc1CC(C)C)-c1c(c(C(=O)NC3(C)COC3)nn1-c1ccsc1)CO2` [Compound 145, 8-Isobutyl-7-methoxy-1-thiophen-3-yl-1,4-dihydro-chromeno[4,3-c]pyrazole-3-carboxylic acid (3-methyl-oxetan-3-yl)-amide], for which the EC50 under setting [1] was in the range of 100 to 1000 nM.

Take `COc1ccc2c(c1)OCc1c(C(=O)N3CCOCC3(C)C)nn(-c3ccsc3)c1-2` [Compound 128, (3,3-Dimethyl-morpholin-4-yl)-(7-methoxy-1-thiophen-3-yl-1,4-dihydro-chromeno[4,3-c]pyrazol-3-yl)-methanone]: the EC50 under setting [1] was greater than 5000 nM.

Turning to `COc1cc2c(cc1OC(C)C)-c1c(c(C(=O)N(C)CCCN(C)C(=O)C3CCC3)nn1-c1ccsc1)CO2` [Compound 30], the EC50 under setting [1] was in the range of 100 to 1000 nM.

For `COc1ccc2c(c1)OCc1c(C(=O)N(C)C(C)(C)C)nn(-c3ccsc3)c1-2` [Compound 133, 7-Methoxy-1-thiophen-3-yl-1,4-dihydro-chromeno[4,3-c]pyrazole-3-carboxylic Acid tert-butyl-methyl-amide], the concentration giving a half-maximal response (EC50) is 1000 to 5000 nM.

As for `COc1cc2c(cc1C=C(C)C)-c1c(c(C(=O)N3CCC34COC4)nn1-c1ccsc1)CO2` [Compound 44, [7-Methoxy-8-(2-methyl-propenyl)-1-thiophen-3-yl-1,4-dihydro-chromeno[4,3-c]pyrazol-3-yl]-(6-oxa-1-aza-spiro[3.3]hept-1-yl)-methanone], under setting [1], the EC50 is 100 to 1000 nM.

As for `COc1cc2c(cc1-c1cnn(C)c1)-c1c(c(C(=O)N(C)C(C)(C)C)nn1-c1ccsc1)CO2` [Compound 66, 7-Methoxy-8-(1-methyl-1H-pyrazol-4-yl)-1-thiophen-3-yl-1,4-dihydro-chromeno[4,3-c]pyrazole-3-carboxylic acid tert-butyl-methyl-amide], under setting [1], the EC50 was less than 100 nM.

Regarding `COc1cc2c(cc1-c1cncn1C)-c1c(c(C(=O)N(C)C(C)(C)C)nn1-c1ccsc1)CO2` [Compound 130, 7-Methoxy-8-(3-methyl-3H-imidazol-4-yl)-1-thiophen-3-yl-1,4-dihydro-chromeno[4,3-c]pyrazole-3-carboxylic acid tert-butyl-methyl-amide], the 50% effective concentration (EC50) under setting [1] was less than 100 nM.

In the case of `COc1cc2c(cc1-c1cnc(C)n1C)-c1c(c(C(=O)N(C)C(C)(C)C)nn1-c1ccsc1)CO2` [Compound 92, 8-(2,3-Dimethyl-3H-imidazol-4-yl)-7-methoxy-1-thiophen-3-yl-1,4-dihydro-chromeno[4,3-c]pyrazole-3-carboxylic acid tert-butyl-methyl-amide], the concentration giving a half-maximal response (EC50) under setting [1] is less than 100 nM.

For the molecule `[2H]C([2H])([2H])N(CCCN(C(=O)c1nn(-c2ccsc2)c2c1COc1cc(OC)c(CC(C)C)cc1-2)C([2H])([2H])[2H])C(C)=O` [Compound 84], the 50% effective concentration (EC50) under setting [1] was greater than 5000 nM.

For the molecule `COc1cc2c(cc1C=C(C)C)-c1c(c(C(=O)N(C)CCCN(C)C(C)=O)nn1-c1ccsc1)CO2` [Compound 32], the EC50 under setting [1] lay within 100 to 1000 nM.

For `COc1cc2c(cc1-c1ccn(C)n1)-c1c(c(C(=O)N3CCNCC34CC4)nn1-c1ccsc1)CO2` [Compound 171, (4,7-Diaza-spiro[2.5]oct-4-yl)-[7-methoxy-8-(1-methyl-1H-pyrazol-3-yl)-1-thiophen-3-yl-1,4-dihydro-chromeno[4,3-c]pyrazol-3-yl]-methanone], the EC50 under setting [1] fell in the range of 100 to 1000 nM.

As for `COc1cc2c(cc1OC(C)C)-c1c(c(C(=O)NCCCN)nn1-c1ccsc1)CO2` [Compound 27, 8-Isopropoxy-7-methoxy-1-thiophen-3-yl-1,4-dihydro-chromeno[4,3-c]pyrazole-3-carboxylic acid (3-amino-propyl)-amide], the EC50 under setting [1] was greater than 5000 nM.

`COc1cc2c(cc1-c1ccn(C)c1)-c1c(c(C(=O)N(C)C3COC3)nn1-c1ccsc1)CO2` [Compound 103, 7-Methoxy-8-(1-methyl-1H-pyrrol-3-yl)-1-thiophen-3-yl-1,4-dihydro-chromeno[4,3-c]pyrazole-3-carboxylic acid methyl-oxetan-3-yl-amide]: under setting [1], the half-maximal effective concentration (EC50) is 100 to 1000 nM.

With `COc1cc2c(cc1CN)-c1c(c(C(=O)N3CCOCC3(C)C)nn1-c1ccsc1)CO2` [Compound 166, (8-Aminomethyl-7-methoxy-1-thiophen-3-yl-1,4-dihydro-chromeno[4,3-c]pyrazol-3-yl)-(3,3-dimethyl-morpholin-4-yl)-methanone], the EC50 under setting [1] fell in the range of 1000 to 5000 nM.

As for `[2H]C([2H])([2H])O[C@@H]1CC[C@H](N(C(=O)c2nn(-c3ccsc3)c3c2COc2cc(OC)c(-c4ccn(C)c4)cc2-3)C([2H])([2H])[2H])C1` [Compound 178], the EC50 under setting [1] fell in the range of 1000 to 5000 nM.

With `COc1cc2c(cc1-c1cnn(CCN3CCCC3)c1)-c1c(c(C(=O)N3CCOCC3(C)C)nn1-c1ccsc1)CO2` [Compound 206, (3,3-Dimethyl-morpholin-4-yl)-{7-methoxy-8-[1-(2-pyrrolidin-1-yl-ethyl)-1H-pyrazol-4-yl]-1-thiophen-3-yl-1,4-dihydro-chromeno[4,3-c]pyrazol-3-yl}-methanone], the EC50 under setting [1] fell in the range of 100 to 1000 nM.

For `COc1cc2c(cc1-c1sc(C)nc1C)-c1c(c(C(=O)N(C)C(C)(C)C)nn1-c1ccsc1)CO2` [Compound 53, 8-(2,4-Dimethyl-thiazol-5-yl)-7-methoxy-1-thiophen-3-yl-1,4-dihydro-chromeno[4,3-c]pyrazole-3-carboxylic acid tert-butyl-methyl-amide], the EC50 under setting [1] was less than 100 nM.

With `COc1cc2c(cc1-c1ccn(C)n1)-c1c(c(C(=O)N3CCN(C(=O)OC(C)(C)C)CC3(C)C)nn1-c1ccsc1)CO2` [Compound 156, 4-[7-Methoxy-8-(1-methyl-1H-pyrazol-3-yl)-1-thiophen-3-yl-1,4-dihydro-chromeno[4,3-c]pyrazole-3-carbonyl]-3,3-dimethyl-piperazine-1-carboxylic acid tert-butyl ester], under setting [1], the half-maximal effective concentration (EC50) was in the range of 100 to 1000 nM.

Consider `[2H]C([2H])([2H])N(CCNC(C)=O)C(=O)c1nn(-c2ccsc2)c2c1COc1cc(OC)c(C=C(C)C)cc1-2` [Compound 87], for which the EC50 under setting [1] lay within 100 to 1000 nM.

Regarding `C=CCn1cc(-c2cc3c(cc2OC)OCc2c(C(=O)N4CCOCC4(C)C)nn(-c4ccsc4)c2-3)cn1` [Compound 207, [8-(1-Allyl-1H-pyrazol-4-yl)-7-methoxy-1-thiophen-3-yl-1,4-dihydro-chromeno[4,3-c]pyrazol-3-yl]-(3,3-dimethyl-morpholin-4-yl)-methanone], the EC50 under setting [1] is less than 100 nM.

On to `COc1cc2c(cc1C=C(C)C)-c1c(c(C(=O)NCCCNC(C)=O)nn1-c1ccsc1)CO2` [Compound 8, 7-Methoxy-8-(2-methyl-propenyl)-1-thiophen-3-yl-1,4-dihydro-chromeno[4,3-c]pyrazole-3-carboxylic acid (3-acetylamino-propyl)-amide], for which, under setting [1], the EC50 is greater than 5000 nM.
